Measurements published in publication PMC4269221 (Cell reports, 2014).
“Also recorded” adds a separate entry of the source.

Experiments:
[1] = test system: p53-Mdm4 complexes in cell lysates; experiment: BiLC assay using cell lysates, p53-Mdm4; format: biochemical; settings: absence of FBS, RT 10 minutes, luminescence at 26 °C
[2] = test system: p53-Mdm2 complexes in cell lysates; experiment: BiLC assay using cell lysates, p53-Mdm2; format: biochemical; settings: absence of FBS, RT 10 minutes, luminescence at 26 °C
[3] = test system: p53-Mdm4 complexes in Saos-2 p53-Mdm4 ReBiL cells; experiment: Real-time BiLC; format: cell-based; settings: 37 °C; for disruption of preformed p53-Mdm4 complexes in living cells: pre-induced cells, doxycycline withdrawal, 10% FBS media
[4] = molecular target: p53-Mdm2 complexes in Saos-2 p53-Mdm2 ReBiL cells (Homo sapiens, UniProt Q00987); experiment: Real-time BiLC; format: cell-based; settings: pre-induced cells, doxycycline withdrawal, 10% FBS media, 37 °C
Chain of p53-Mdm2 complexes in Saos-2 p53-Mdm2 ReBiL cells (Q00987 whole entry, one chain of several): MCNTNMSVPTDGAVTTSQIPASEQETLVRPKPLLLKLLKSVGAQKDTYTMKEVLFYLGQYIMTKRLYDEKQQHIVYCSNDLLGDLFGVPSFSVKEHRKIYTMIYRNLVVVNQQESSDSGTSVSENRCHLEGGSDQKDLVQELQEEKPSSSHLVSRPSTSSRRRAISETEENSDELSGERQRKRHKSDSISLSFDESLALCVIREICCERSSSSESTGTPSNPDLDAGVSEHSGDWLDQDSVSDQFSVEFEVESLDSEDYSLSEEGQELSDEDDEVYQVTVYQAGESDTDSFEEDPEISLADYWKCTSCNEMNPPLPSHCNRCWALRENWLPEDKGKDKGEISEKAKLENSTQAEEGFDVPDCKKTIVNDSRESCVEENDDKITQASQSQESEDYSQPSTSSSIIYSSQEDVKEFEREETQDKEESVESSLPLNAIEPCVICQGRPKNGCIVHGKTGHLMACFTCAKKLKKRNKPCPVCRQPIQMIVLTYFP

[5] = test system: Mdm2-Mdm4 N-terminal BiLC pair (U2OS Mdm4_111 - Mdm2_108 ReBiL cells); experiment: ReBiL assay of the Mdm2-Mdm4 N-terminal BiLC pair in living cells; format: cell-based; settings: 500 ng/ml doxycycline, 24 hours, 37 °C
Saos-2 cells (p53-null) = experiment: CellTiter Glo cell viability assay, Saos-2; settings: Saos-2 ReBiL cells, 6 hr, CellTiter Glo (Figure 5)
Saos-2 cells = experiment: Lactate dehydrogenase; format: cell-based; settings: absence of serum, 25 μM and 10 μM, 6 hr

| Compound | p53-Mdm4 disruption in lysate BiLC assay [1] | p53-Mdm2 disruption in lysate BiLC assay [2] | p53-Mdm4 BiLC signal (newly synthesized complexes) ([3]; doxycycline 500 ng/ml and compound added at Time = 0, 24-48 hr) | disruption of preformed p53-Mdm2 complexes in living cells [4] | disruption of preformed p53-Mdm4 complexes in living cells [3] | Mdm2-Mdm4 N-terminal domain BiLC signal (association) [5] | p53-independent cytotoxicity at high concentrations (Saos-2 cells (p53-null)) | LDH leakage / cell membrane damage (Saos-2 cells) |
| --- | --- | --- | --- | --- | --- | --- | --- | --- |
| CCOc1cc(/C=C2/C(=O)N(c3ccccc3)N=C2C)cc(Cl)c1OCC(=O)OC [SJ-172550] | no activity | no activity | No decrease; also recorded: lacks p53-Mdm4 disruption activity |  |  |  |  |  |
| RO-5963 | no activity | no activity |  | limited ability to disrupt; also recorded: moderately reduces | no effect | increased the BiLC signal; also recorded: enhances |  |  |
| COc1ccc(C2=N[C@@H](c3ccc(Cl)cc3)[C@@H](c3ccc(Cl)cc3)N2C(=O)N2CCNC(=O)C2)c(OC(C)C)c1 [Nutlin-3a] |  | efficiently disrupted |  |  | not affected; also recorded: has no effect | did not promote | induce p53-independent cytotoxicity | did not induce membrane leakage |
